According to the supplement of paper PMC11208160:

Experiment: recombinant barcode read abundance after kanamycin selection (control-corrected) (log10(CPM+1)); higher = more efficient recombination; sequences stand for … in AGTGCAGAGAAAATCGGCCAGTTTTCTCTGCCTGCAGTCCGCATGCCGT…AGATTTATGCAGCGGACTGCCTTTCTCCCAAAGTGATAAACCGGACAGTATCATGGACCGGTTTTCCCGGTAATCCGTATTTGCAAGGTTGGTTTCACT; site = the 11-nt target
Protocol: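 Pooled E. coli target-specificity screen for the IS621 bridge recombinase. Each library plasmid pairs an 11-nt target (CT core) with a bridge RNA whose target-binding loop (9-nt LTG + 4-nt RTG) is reprogrammed; the rest of the 177-nt WT IS621 bridge RNA scaffold is fixed. The plasmid is co-electroporated with a WT donor plasmid; recombinase is induced with 0.1 mM IPTG and recombinants are selected on kanamycin. Recombinant barcodes are sequenced, converted to CPM, averaged over two biological replicates and corrected by the unselected control CPM. Molecule = full bridge RNA written as DNA: LTG = specificity nt 1-9, RTG = reverse complement of specificity nt 8-11, in the WT scaffold.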
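Note: IS621 recombinase and bridge RNA in Escherichia coli cells.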

| Sequence | recombinant barcode read abundance (log10) |
| --- | --- |
| AATGAATCTTGGGTTCTAACCTGTTGCCT (site AATGTATCTAG) | 0.301 |
| AATGGGCCTTGGGTTCTAACCTGTTGCCT (site AATGGGACTAG) | 0.131 |
| AATGGGCCTTGGGTTCTAACCTGTTGCCT (site AATGGGCCTAG) | 0.273 |
| AATGGGCCTTGGGTTCTAACCTGTTGCCT (site AATGGGGCTAG) | 0.179 |
| AATGGGCCTTGGGTTCTAACCTGTTGCCT (site AATGGGTCTAG) | 0.201 |
| AATGGGGCTTGGGTTCTAACCTGTTGCTG (site AATGGGGCTCA) | 1.15 |
| AATGGGGCTTGGGTTCTAACCTGTTGCTG (site TATGGAGCTCA) | 0.0813 |
| AATGTACCTTGGGTTCTAACCTGTTGCCT (site AATGTACCTAG) | 1.89 |
| AATGTACCTTGGGTTCTAACCTGTTGCCT (site CATGTACCTAG) | 0.45 |
| AATGTACCTTGGGTTCTAACCTGTTGCCT (site GATGTACCTAG) | 0.0545 |
| AATGTACCTTGGGTTCTAACCTGTTGCCT (site TATGTACCTAG) | 1.27 |
| AATGTGTCTTGGGTTCTAACCTGTTGCCT (site AAAGTGTCTAG) | 0.663 |
| AATGTGTCTTGGGTTCTAACCTGTTGCCT (site AACGTGTCTAG) | 1.47 |
| AATGTGTCTTGGGTTCTAACCTGTTGCCT (site AAGGTGTCTAG) | 1.01 |
| AATGTGTCTTGGGTTCTAACCTGTTGCCT (site AATGTGTCTAG) | 2.59 |
| AATTAGACTTGGGTTCTAACCTGTTGCCT (site AATTAGACTAG) | 1.12 |
| AATTAGACTTGGGTTCTAACCTGTTGCCT (site CATTAGACTAG) | 0.152 |
| AATTAGACTTGGGTTCTAACCTGTTGCCT (site GATTAGACTAG) | 0.226 |
| AATTAGACTTGGGTTCTAACCTGTTGCCT (site TATTAGACTAG) | 0.125 |
| AATTAGCCTTGGGTTCTAACCTGTTGCCT (site AATTAGCCTAG) | 0.488 |
| AATTAGCCTTGGGTTCTAACCTGTTGCCT (site GTGAGCACTTA) | 0.185 |
| AATTGGCCTTGGGTTCTAACCTGTTGCTT (site AATTGGCCTAA) | 0.344 |
| AATTGGCCTTGGGTTCTAACCTGTTGCTT (site GATAGGCCTAA) | 0.37 |
| AATTTAGCTTGGGTTCTAACCTGTTGCCT (site AATTAAGCTAG) | 0.172 |
| AATTTAGCTTGGGTTCTAACCTGTTGCCT (site AATTCAGCTAG) | 0.169 |

| Sequence | recombinant barcode read abundance (log10) |
| --- | --- |
| AATTTAGCTTGGGTTCTAACCTGTTGCCT (site AATTGAGCTAG) | 0.0396 |
| AATTTAGCTTGGGTTCTAACCTGTTGCCT (site AATTTAGCTAG) | 0.244 |
| ACAAAACCTTGGGTTCTAACCTGTTGCCT (site ACAAAACCTAG) | 0.171 |
| ACAAAACCTTGGGTTCTAACCTGTTGCCT (site ACAAACCCTAG) | 0.461 |
| ACAAAACCTTGGGTTCTAACCTGTTGCCT (site ACAAAGCCTAG) | 0.0848 |
| ACAAAACCTTGGGTTCTAACCTGTTGCCT (site ACAAATCCTAG) | 0.0655 |
| ACAAAAGCTTGGGTTCTAACCTGTTGCGG (site ACAAAAGCTCC) | 1.59 |
| ACAAAAGCTTGGGTTCTAACCTGTTGCGG (site ACAAAGGCTCC) | 0.514 |
| ACAAAGACTTGGGTTCTAACCTGTTGCCT (site ACAAAGACTAG) | 0.847 |
| ACAAAGACTTGGGTTCTAACCTGTTGCCT (site ACAAGGGCTAG) | 0.0359 |
| ACAACCACTTGGGTTCTAACCTGTTGCCT (site ACAACCACTAG) | 0.235 |
| ACAACCACTTGGGTTCTAACCTGTTGCCT (site ACAACGACTAG) | 0.0258 |
| ACAACCTCTTGGGTTCTAACCTGTTGCCG (site ACAACCTCTCG) | 1.23 |
| ACAACCTCTTGGGTTCTAACCTGTTGCCG (site TAGGGTACTGC) | 0 |
| ACAAGCACTTGGGTTCTAACCTGTTGCCT (site ACAAGCACTAG) | 1.46 |
| ACAAGCACTTGGGTTCTAACCTGTTGCCT (site ACCATCACTAG) | 0.2 |
| ACAAGGGCTTGGGTTCTAACCTGTTGCCT (site ACAAAGACTAG) | 0.261 |
| ACAAGGGCTTGGGTTCTAACCTGTTGCCT (site ACAAGGGCTAG) | 0.547 |
| ACAAGTCCTTGGGTTCTAACCTGTTGCGG (site ACAAGTCCTCC) | 1.74 |
| ACAAGTCCTTGGGTTCTAACCTGTTGCGG (site ATAAGTCCTTC) | 0.0466 |
| ACAATGTCTTGGGTTCTAACCTGTTGCGG (site ACAATGTCTCC) | 1.27 |
| ACAATGTCTTGGGTTCTAACCTGTTGCGG (site ACACTGTCTCC) | 0.148 |
| ACAATGTCTTGGGTTCTAACCTGTTGCGG (site ACAGTGTCTCC) | 0.192 |
| ACAATGTCTTGGGTTCTAACCTGTTGCGG (site ACATTGTCTCC) | 0.427 |
| ACACACTCTTGGGTTCTAACCTGTTGCTG (site ACACACTCTCA) | 1.97 |

| Sequence | recombinant barcode read abundance (log10) |
| --- | --- |
| ACACACTCTTGGGTTCTAACCTGTTGCTG (site ACACTCCCTCA) | 0.0463 |
| ACACCACCTTGGGTTCTAACCTGTTGCCT (site AAACCACCTAG) | 0.585 |
| ACACCACCTTGGGTTCTAACCTGTTGCCT (site ACACCACCTAG) | 0.0741 |
| ACACCACCTTGGGTTCTAACCTGTTGCCT (site AGACCACCTAG) | 0.179 |
| ACACCACCTTGGGTTCTAACCTGTTGCCT (site ATACCACCTAG) | 0.0171 |
| ACACGCCCTTGGGTTCTAACCTGTTGCAC (site ACACGCCCTGT) | 0.333 |
| ACACGCCCTTGGGTTCTAACCTGTTGCAC (site AGACTCCCTGT) | 0.0104 |
| ACACGGCCTTGGGTTCTAACCTGTTGCCG (site ACACGGCCTCG) | 0.428 |
| ACACGGCCTTGGGTTCTAACCTGTTGCCG (site TAGTACGCTAA) | 0.145 |
| ACACTAACTTGGGTTCTAACCTGTTGCCT (site AAACTAACTAG) | 0.071 |
| ACACTAACTTGGGTTCTAACCTGTTGCCT (site ACACTAACTAG) | 0.404 |
| ACACTAACTTGGGTTCTAACCTGTTGCCT (site AGACTAACTAG) | 0.0933 |
| ACACTAACTTGGGTTCTAACCTGTTGCCT (site ATACTAACTAG) | 0 |
| ACACTGGCTTGGGTTCTAACCTGTTGCCT (site ACACTGGCTAG) | 0.987 |
| ACACTGGCTTGGGTTCTAACCTGTTGCCT (site ACCCTGGCTAG) | 0.0877 |
| ACACTGGCTTGGGTTCTAACCTGTTGCCT (site ACGCTGGCTAG) | 0.025 |
| ACACTGGCTTGGGTTCTAACCTGTTGCCT (site ACTCTGGCTAG) | 0 |
| ACAGAGACTTGGGTTCTAACCTGTTGCAC (site ACAGAGACTGT) | 1.76 |
| ACAGAGACTTGGGTTCTAACCTGTTGCAC (site ACAGAGACTTA) | 0.183 |
| ACAGATTCTTGGGTTCTAACCTGTTGCCT (site ACAGATTCTAG) | 1.73 |
| ACAGATTCTTGGGTTCTAACCTGTTGCCT (site ATAGAGTCTAG) | 0.0143 |
| ACAGGAGCTTGGGTTCTAACCTGTTGCGG (site ACACGACCTCC) | 0.154 |
| ACAGGAGCTTGGGTTCTAACCTGTTGCGG (site ACAGGAGCTCC) | 2.61 |
